Biological target: T1, Or22a (Drosophila melanogaster, UniProt P81909)
T1 construct: his-tag; made in house; host or cells: baculovirus-infected Sf9 cells
T1 sequence (P81909 1-397): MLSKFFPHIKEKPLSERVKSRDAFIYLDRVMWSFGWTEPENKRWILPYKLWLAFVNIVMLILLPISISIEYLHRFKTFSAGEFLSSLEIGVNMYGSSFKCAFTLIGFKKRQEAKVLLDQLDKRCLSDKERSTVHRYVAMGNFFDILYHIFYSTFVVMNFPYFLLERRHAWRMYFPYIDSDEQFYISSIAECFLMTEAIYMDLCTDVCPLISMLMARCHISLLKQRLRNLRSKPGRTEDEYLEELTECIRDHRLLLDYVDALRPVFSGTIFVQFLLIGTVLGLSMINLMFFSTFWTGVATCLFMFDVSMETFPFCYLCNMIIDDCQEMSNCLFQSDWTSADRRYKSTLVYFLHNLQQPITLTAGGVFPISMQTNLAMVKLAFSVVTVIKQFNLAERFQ
Experiment: Droplet interface bilayer ion channel recording, Or22a only
Type: biochemical
Conditions: DIB, 10 μM ligand, holding potential +/−150, +/−100, +/−50 mV
Procedure: Bilayers were formed between two droplets formed within a PMMA chamber filled with 1 mg/ml DPhPC in undecane and AR20 silicone oil (1:1 ratio). The first step in this process was to deposit a 50 nl droplet onto the stationary silver electrode positioned at the base of the well; this droplet consisted of an aqueous solution containing 300 mM NaCl, 10 mM HEPES (pH 7.4), containing the odorant receptor proteins in proteoliposomes (at a 1:20 dilution from the proteoliposome preparation), […] The second droplet was mounted onto a second silver electrode which was held in the oil and lipid mixture using a YOU-3 manipulator (Narishige, Japan). […] Once the droplets were in contact a bilayer formed spontaneously within 1 minute (as determined by visual assessment and an increase in the bilayer capacitance as measured with a capacitance voltage protocol using the Pico2 amplifier). Insertion of an active channel was determined by a change in current while clamping the voltage at 50 mV. […]
Currents were recorded with a Pico2 or an eONE-HS amplifier (Tecella, USA and Elements, Italy, respectively) with built-in digitizers, operating in gap-free acquisition mode at a sampling frequency of 20 kHz, and using a 0.8 or 1.5 kHz low pass filter. […]
Data were analysed using ANA (Dr Pusch, Genoa), EDR (Elements, Italy) and WinWCP (Dr Dempster, University of Strathclyde). […]

CCCCCC(=O)OC [methyl hexanoate]
ion channel activity: No ion channel activity

Reference: patent publication US20210255184A1, “Biosensor Device and Methods” (The New Zealand Institute for Plant and Food Research …, priority 2018, published 2021)
